From paper PMC10553834, “Differentiating the roles of Mycobacterium tuberculosis substrate binding proteins, FecB and FecB2, in iron uptake” (PLOS Pathogens, 2023)
“Also recorded” adds a separate entry of the source. Where two headings read alike, the source gives them in different places.

Columns and labels:
Mtb FecB (Rv3044) = Mtb FecB (Rv3044) (Mycobacterium tuberculosis, UniProt O53291); test: biochemical; type: binding
Mtb FecB2 (Rv0265c) = Mtb FecB2 (Rv0265c) (Mycobacterium tuberculosis, UniProt L7N6B2); type: binding; conditions: FecB2-His (with His tag); 100 nM protein, 50 mM Tris-HCl pH 7.4, 150 mM NaCl, emission 335 nm
Chain of Mtb FecB2 (Rv0265c) (L7N6B2 39-330 limits assumed): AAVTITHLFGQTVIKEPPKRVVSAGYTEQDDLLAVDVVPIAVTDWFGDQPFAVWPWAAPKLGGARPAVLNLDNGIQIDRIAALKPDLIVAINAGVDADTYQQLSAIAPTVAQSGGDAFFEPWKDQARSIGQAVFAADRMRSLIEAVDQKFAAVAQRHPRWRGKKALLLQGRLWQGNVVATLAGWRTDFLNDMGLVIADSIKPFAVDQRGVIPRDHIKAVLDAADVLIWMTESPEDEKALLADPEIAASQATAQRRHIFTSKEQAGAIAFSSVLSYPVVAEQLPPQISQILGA

Chain of Mtb FecB (Rv3044) (O53291 entry or part of it): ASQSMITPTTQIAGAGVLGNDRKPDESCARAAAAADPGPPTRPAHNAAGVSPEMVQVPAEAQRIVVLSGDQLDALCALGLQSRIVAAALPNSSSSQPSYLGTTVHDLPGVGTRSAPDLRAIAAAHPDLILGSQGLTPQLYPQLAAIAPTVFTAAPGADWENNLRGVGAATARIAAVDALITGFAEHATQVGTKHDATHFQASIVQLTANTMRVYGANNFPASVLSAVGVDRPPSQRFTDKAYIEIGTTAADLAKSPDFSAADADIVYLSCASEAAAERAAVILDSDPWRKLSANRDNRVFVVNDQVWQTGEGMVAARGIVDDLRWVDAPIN

Row | Compound | Fold weaker affinity to FecB compared to Fe-cMB (Mtb FecB (Rv3044)) | Kd (Mtb FecB (Rv3044)) [µM] | Kd (Mtb FecB (Rv3044); FecB without His tag (tagless), 100 nM protein, 50 mM Tris-HCl pH 7.4, 150 mM NaCl, emission 335 nm) [µM] | Kd (Mtb FecB (Rv3044); FecB-His (with His tag, native), 100 nM protein, 50 mM Tris-HCl pH 7.4, 150 mM NaCl, emission 335 nm) [µM] | Kd (Mtb FecB2 (Rv0265c)) | Kd (Mtb FecB (Rv3044); listed as Fe-mycobactin J) [µM]
1 | carboxymycobactin [apo-cMB] | ~4 fold | 2.9 ± 0.1 |  |  |  | 
2 | O=C(N[C@H]1COC(=O)[C@@H](NC(=O)c2cccc(O)c2O)COC(=O)[C@@H](NC(=O)c2cccc(O)c2O)COC1=O)c1cccc(O)c1O [ferric-enterobactin] | at least 40 fold | 26.1 |  |  |  | 
3 | ferric-carboxymycobactin [Fe-cMB] |  | 0.55 | 0.68 | 0.63 ± 0.12 | could not be determined; also recorded: too weak to be determined | 
4 | ferric-mycobactin J [Fe-MBJ] | ~20 fold | ~11 |  |  |  | 11.3 ± 0.1
5 | ferric-pyoverdines | at least 40 fold | > 45 |  |  |  | 
